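In this assay, cells in 96-well plates receive the compound at five concentrations for 48 hours. Endpoints are linearly interpolated between the surrounding concentrations. GI50: concentration for 50% inhibition of growth.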 Calls of active or inactive are those of the source. Rule as the data show it: active = GI50 up to about 1.1 µM and inactive = higher.

This note sets out measurements from ChEMBL document CHEMBL1201862, “PubChem BioAssay data set” (2004).

Test systems include TK-10; SK-OV-3; SK-MEL-28; A549; SK-MEL-2; HCT-15; CAKI-1; KM12; M14; EKVX; SNB-75; MDA-N; MDA-MB-435; SNB-19; SF-295; MDA-MB-231; SN12C; NCI-H226; OVCAR-4.
Assay in all cases: NCI anticancer screen, dose series, 48 h

As to `C=C1CCC(O)C/C1=C/C=C1\CCCC2(C)C1CCC2C(C)CCCC(C)C` (centres undefined), the GI50 is 12.3 µM (inactive) in the experiment on TK-10; 22.8 µM (inactive) with SK-OV-3; 16.6 µM (inactive) with SK-MEL-28; 19.6 µM (inactive) in the experiment with A549; 18.6 µM (inactive) in the experiment with SK-MEL-2; 17.1 µM in the experiment on HCT-15. Besides, the GI50 is 19.8 µM (inactive) in the experiment on CAKI-1; 20.6 µM (inactive) in the experiment with KM12; 18 µM (inactive) in the experiment with M14; 19 µM (inactive) in the experiment with EKVX; 17.4 µM (inactive) with SNB-75; 18 µM (inactive) with MDA-N. The GI50 in the experiment with MDA-MB-435 is 16.3 µM (inactive); with SNB-19, 19.1 µM (inactive); in the experiment with SF-295, 19.6 µM (inactive); in the experiment with MDA-MB-231 it was 19.9 µM (inactive); with SN12C, 16.6 µM (inactive); with NCI-H226, 16 µM (inactive). In addition, in the experiment with OVCAR-4, the GI50 was 18.1 µM (inactive).

For `C/N=C(N)/N=C(\N)Nc1cc2ccccc2c2ccccc12`, the GI50 in the experiment with TK-10 was 13 µM (inactive); with SK-OV-3 it was 16.3 µM (inactive); in the experiment on SK-MEL-28 it was 17.8 µM (inactive); in the experiment with A549, 14.2 µM (inactive); with SK-MEL-2 it was 18 µM (inactive); with HCT-15, 16.7 µM. In addition, the GI50 with CAKI-1 was 14.5 µM (inactive); with KM12, 17.1 µM (inactive); in the experiment on M14, 17 µM (inactive); in the experiment with EKVX it was 16.3 µM (inactive); with SNB-75 it was 13 µM (inactive); in the experiment on MDA-N, 13.9 µM (inactive). The GI50 in the experiment with MDA-MB-435 was 15.9 µM (inactive); in the experiment on SNB-19, 15.8 µM (inactive); in the experiment with SF-295, 17.1 µM (inactive); with MDA-MB-231 it was 13.3 µM (inactive); in the experiment with SN12C, 12.5 µM (inactive); in the experiment on NCI-H226, 20.7 µM (inactive). In the experiment with OVCAR-4, the GI50 was 14.7 µM (inactive).

Take `Nc1nc(Cl)c(N)c(NCC2(CO)CC(Cc3ccccc3)C2)n1` (centres undefined): the GI50 was > 100 µM (inactive) in the experiment with TK-10; > 100 µM (inactive) with SK-OV-3; > 100 µM (inactive) in the experiment with SK-MEL-28; > 75 µM (inactive) in the experiment with A549; 52.6 µM (inactive) in the experiment with SK-MEL-2; more than 79.3 µM with HCT-15. The GI50 in the experiment with CAKI-1 is > 100 µM (inactive); with KM12, 35.7 µM (inactive); in the experiment with M14, 55.2 µM (inactive); in the experiment with EKVX, 3.2 µM (inactive); in the experiment with SNB-75 it was > 85.3 µM (inactive); in the experiment with MDA-N, 33.3 µM (inactive). Also, the GI50 is 16.6 µM (inactive) in the experiment on MDA-MB-435; > 66.4 µM (inactive) with SNB-19; > 100 µM (inactive) in the experiment on SF-295; 61.4 µM (inactive) in the experiment on MDA-MB-231; > 100 µM (inactive) in the experiment with SN12C; > 31.8 µM (inactive) in the experiment on NCI-H226. Besides, in the experiment with OVCAR-4, the GI50 was 48.1 µM (inactive).

With `O[C@@H]1C=C[C@]23CCN(Cc4cc5c(cc42)OCO5)[C@@H]3C1`, the GI50 in the experiment with TK-10 was 49.8 µM (inactive); in the experiment with SK-OV-3 it was > 100 µM (inactive); in the experiment with SK-MEL-28 it was > 100 µM (inactive); in the experiment with A549, 46.6 µM (inactive); with SK-MEL-2, 31.3 µM (inactive); in the experiment on HCT-15, more than 100 µM. Moreover, the GI50 in the experiment on CAKI-1 was 26.8 µM (inactive); in the experiment with KM12, 52.5 µM (inactive); with M14, > 100 µM (inactive); in the experiment on EKVX, 87.1 µM (inactive); in the experiment on SNB-75 it was 20.5 µM (inactive); with MDA-N, 69.3 µM (inactive). The GI50 with MDA-MB-435 is 57 µM (inactive); in the experiment on SNB-19, 43.1 µM (inactive); with SF-295, 40 µM (inactive); with MDA-MB-231, 58.2 µM (inactive); in the experiment on SN12C it was 32.7 µM (inactive); in the experiment with NCI-H226 it was > 100 µM (inactive). The GI50 with OVCAR-4 is 34 µM (inactive).

For `C[N+](C)(C)CC1CCCCCCCCCCC1=O` (centres undefined), the GI50 is > 100 µM (inactive) with TK-10; > 100 µM (inactive) in the experiment with SK-OV-3; > 100 µM (inactive) in the experiment on SK-MEL-28; > 100 µM (inactive) in the experiment with A549; > 100 µM (inactive) in the experiment with SK-MEL-2; more than 100 µM with HCT-15. In addition, the GI50 in the experiment on CAKI-1, in the experiment on KM12, in the experiment with M14, in the experiment with EKVX, in the experiment with SNB-75 and in the experiment on MDA-N was > 100 µM (inactive) each time. The GI50 in the experiment with MDA-MB-435, in the experiment with SNB-19, in the experiment on SF-295, in the experiment on MDA-MB-231, in the experiment on SN12C and with NCI-H226 was > 100 µM (inactive) in each case. The GI50 with OVCAR-4 was > 100 µM (inactive).

On to `O=C1/C(=C/c2ccc(O)cc2)CCCC1CN1CCCCC1` (centres undefined), for which the GI50 in the experiment on TK-10 was 2.55 µM (inactive); in the experiment with SK-OV-3, 16.6 µM (inactive); in the experiment on SK-MEL-28 it was 5.43 µM (inactive); with A549 it was 17.2 µM (inactive); in the experiment on SK-MEL-2, 11.2 µM (inactive); in the experiment on HCT-15, 1.32 µM. For the same compound, the GI50 in the experiment with CAKI-1 was 2.56 µM (inactive); with KM12 it was 1.64 µM (inactive); in the experiment with M14 it was 2.94 µM (inactive); with EKVX, 3.25 µM (inactive); with SNB-75, 8.63 µM (inactive); in the experiment on MDA-N, 3.47 µM (inactive). The GI50 with MDA-MB-435 was 7.28 µM (inactive); in the experiment on SNB-19, 17.6 µM (inactive); with SF-295 it was 16.1 µM (inactive); with MDA-MB-231 it was 2.27 µM (inactive); with SN12C, 2.29 µM (inactive); with NCI-H226 it was 7.14 µM (inactive). Further, the GI50 with OVCAR-4 is 12.9 µM (inactive).

Take `COc1cc2c(cc1OCc1ccccc1)NC(=O)[C@@H]1C[C@@H](O)CN1C2=O`: the GI50 is > 100 µM (inactive) in the experiment on TK-10; > 100 µM (inactive) in the experiment with SK-OV-3; > 100 µM (inactive) in the experiment with SK-MEL-28; > 100 µM (inactive) in the experiment with A549; > 100 µM (inactive) in the experiment on SK-MEL-2; more than 100 µM in the experiment with HCT-15. The GI50 in the experiment with CAKI-1 is > 100 µM (inactive); in the experiment with KM12, > 100 µM (inactive); in the experiment on M14 it was > 100 µM (inactive); in the experiment with EKVX it was > 100 µM (inactive); with SNB-75, 35.6 µM (inactive); with MDA-N it was > 100 µM (inactive). Also, the GI50 was > 100 µM (inactive) in the experiment with MDA-MB-435; > 100 µM (inactive) in the experiment with SNB-19; > 100 µM (inactive) with SF-295; 75 µM (inactive) in the experiment with MDA-MB-231; > 100 µM (inactive) in the experiment with SN12C; > 100 µM (inactive) in the experiment on NCI-H226. Also, in the experiment with OVCAR-4, the GI50 was > 100 µM (inactive).

As for `COc1cc(NCCC2CCCCN2)c2ncccc2c1` (centres undefined), the GI50 in the experiment with TK-10 was > 73.6 µM (inactive); with SK-OV-3, > 100 µM (inactive); in the experiment on SK-MEL-28 it was 29.2 µM (inactive); with A549, > 96.6 µM (inactive); in the experiment on SK-MEL-2, > 55.7 µM (inactive); in the experiment on HCT-15 it was more than 74.3 µM. The GI50 was > 77.1 µM (inactive) with CAKI-1; 60.4 µM (inactive) in the experiment on KM12; 21.5 µM (inactive) with M14; > 100 µM (inactive) with EKVX; 60.3 µM (inactive) in the experiment with SNB-75; 36.3 µM (inactive) with MDA-N. In addition, the GI50 with MDA-MB-435 is 26.4 µM (inactive); in the experiment with SNB-19 it was > 100 µM (inactive); with SF-295, 67.1 µM (inactive); with MDA-MB-231, 34.8 µM (inactive); in the experiment on SN12C, > 49.4 µM (inactive); in the experiment with NCI-H226, > 63.8 µM (inactive). Besides, the GI50 in the experiment with OVCAR-4 was > 70.5 µM (inactive).

For `COc1ccc(C(OCC2OC(n3cnc4c(=O)n(Cc5ccccc5[N+](=O)[O-])nnc43)C(O)C2O)(c2ccccc2)c2ccc(OC)cc2)cc1` (centres undefined), the GI50 in the experiment with TK-10 is 9.53 µM (inactive); in the experiment on SK-OV-3 it was 20.4 µM (inactive); in the experiment with SK-MEL-28, 16.7 µM (inactive); in the experiment with A549 it was 5.57 µM (inactive); in the experiment with SK-MEL-2 it was 14.7 µM (inactive); in the experiment on HCT-15, 9.31 µM. The GI50 with CAKI-1 was 10.7 µM (inactive); in the experiment on KM12, 13.1 µM (inactive); in the experiment on M14, 8.51 µM (inactive); with EKVX, 29.3 µM (inactive); in the experiment on SNB-75, 45.7 µM (inactive); in the experiment on MDA-N, 7.52 µM (inactive). Also, the GI50 with MDA-MB-435 is 10.4 µM (inactive); in the experiment with SNB-19, 44.9 µM (inactive); with SF-295 it was 5.97 µM (inactive); in the experiment on MDA-MB-231, 14.1 µM (inactive); in the experiment on SN12C it was 6.9 µM (inactive); with NCI-H226 it was 5.92 µM (inactive). Also, the GI50 with OVCAR-4 is 20.6 µM (inactive).

Turning to `CC(C)CCC[C@@H](C)C1CCC2[C@@H]3CCC4C[C@@H](NS(C)(=O)=O)CC[C@]4(C)C3CC[C@@]21C` (some centres undefined), the GI50 is > 100 µM (inactive) in the experiment on TK-10; > 100 µM (inactive) in the experiment on SK-OV-3; > 100 µM (inactive) with SK-MEL-28; > 100 µM (inactive) in the experiment with A549; > 100 µM (inactive) in the experiment on SK-MEL-2; more than 100 µM with HCT-15. The GI50 in the experiment on CAKI-1, with KM12, in the experiment with M14, in the experiment on EKVX, in the experiment with SNB-75 and with MDA-N was > 100 µM (inactive) throughout. In addition, the GI50 in the experiment on MDA-MB-435, in the experiment with SNB-19, in the experiment on SF-295, in the experiment on MDA-MB-231, with SN12C and in the experiment on NCI-H226 was > 100 µM (inactive) in each case. Moreover, the GI50 with OVCAR-4 is > 100 µM (inactive).

With `CCN(CC)CCNc1ccc2ncn3c4c(OC)ccc(O)c4c(=O)c1c23`, the GI50 was 33 µM (inactive) with TK-10; 66.2 µM (inactive) with SK-OV-3; 12.3 µM (inactive) in the experiment with SK-MEL-28; 2.86 µM (inactive) with A549; > 100 µM (inactive) with SK-MEL-2; 3.63 µM with HCT-15. Besides, the GI50 with CAKI-1 is 32.1 µM (inactive); in the experiment on KM12, 8.17 µM (inactive); in the experiment with M14 it was 13.6 µM (inactive); in the experiment on EKVX, 46.8 µM (inactive); in the experiment with SNB-75, 46.3 µM (inactive); in the experiment on MDA-N it was 21.1 µM (inactive). Moreover, the GI50 is 24.9 µM (inactive) in the experiment on MDA-MB-435; 19.6 µM (inactive) with SNB-19; 16.6 µM (inactive) with SF-295; 13.7 µM (inactive) in the experiment on MDA-MB-231; 4.82 µM (inactive) in the experiment with SN12C; 45.8 µM (inactive) in the experiment on NCI-H226. Further, the GI50 in the experiment with OVCAR-4 is 6.21 µM (inactive).
